Columns and labels:
[1] = tested on: NMDAR-EPSCs (GluN1/GluN2B receptors); experiment: Evoked NMDAR-EPSCs, whole-cell patch-clamp of layer V pyramidal neurons in sham- or endoNF-treated mPFC slices; type: cell-based, mouse; conditions: endoNF-treated mPFC slices; DP1 10 μg/ml; DP5 1 μg/ml and 10 μg/ml
Text: Each mouse was quickly sacrificed by cervical dislocation. After decapitation, the brain was rapidly removed from the skull and placed in ice-cold artificial cerebrospinal fluid (aCSF) equilibrated with 95% O2/5% CO2, which was composed of the following (in mM): 250 sucrose, 24 NaHCO3, 25 glucose, 2.5 KCl, 1.25 NaH2PO4, 2 CaCl2, and 1.5 MgCl2 (osmolarity 345-350 mOsm/kg, pH 7.4). Using a VT1200S vibratome (Leica, Nussloch, Germany), coronal slices containing the prelimbic and infralimbic cortices (1.9-1.3 mm anterior to bregma) were cut 350 μm or 400 μm thick, for patch clamp and extracellular recordings, respectively, in the same sucrose-containing aCSF. Then, the slices were transferred to a slice holding chamber filled with recording aCSF (osmolarity 300-305 mOsm/kg, pH 7.4) that contained 120 mM NaCl instead of sucrose (Eckhardt et al., 2000) and was continuously gassed with 95% O2/5% CO2.
For endoNF treatment in C57BL/6J mice, slices were first allowed to recover for 20 min at room temperature (22-24° C.) in recording aCSF and were then placed in a 24-well plate to be incubated in 2 ml of aCSF without (sham) or with addition of endoNF (10 μg/ml) at 35° C. for 2 hours. The 24-well plate was installed in a water bath (ED, Julabo, Seelbach, Germany). For field excitatory postsynaptic potential (fEPSP) recordings in knockout and transgenic mice, mPFC slices were incubated in recording aCSF for >2 hours at room temperature before recordings. For patch-clamp recordings in knockout mice, slices were incubated first at 35° C. for 20 min and then at room temperature for >30 min before recordings started. The aCSF was continuously gassed with 95% O2/5% CO2 during all incubation steps and recordings.
For whole-cell patch-clamp recordings, layer V pyramidal neurons were visualized using a SliceScope Pro 6000 equipped with a 40× water-immersion objective and infrared differential interference contrast microscopy (Scientifica, Uckfield, UK). Pyramidal cells were identified by their triangular soma and long apical dendrites, and synaptically evoked excitatory postsynaptic currents (EPSCs) were recorded using patch pipettes (3-5 MQ) fabricated using borosilicate glass capillaries (wall thickness 0.315, length 100, outer diameter 1.5 mm, Hilgenberg) and a DMZ-Zeitz puller (Zeitz Instruments GmbH, Martinsried, Germany). The intracellular pipette solution contained the following (in mM): 140.7 Cs-methane-sulfonate, 5 NaCl, 1 MgCl2, 0.2 EGTA, 10 HEPES, 3 ATP-Mg, 0.3 Na-GTP, and 3.1 QX-314 (osmolarity 295 mOsm/kg, adjusted to pH 7.2 with CsOH). EPSCs were evoked by electrical pulses (0.2 ms) at 0.033 Hz via a glass pipette placed in layer II/III of the mPFC (identically to fEPSPs). Mixed EPSCs showing a fast AMPAR-mediated component and a slow NMDAR-mediated component were recorded at a −60 mV holding potential in whole-cell voltage-clamp mode in normal aCSF. The stimulation intensity was adjusted to evoke mixed EPSCs with amplitudes of approximately 300 pA. The slow NMDAR-mediated component of EPSCs was pharmacologically isolated at −60 mV in modified aCSF containing low Mg^2+ (0.1 mM) and high Ca^2+ (3.2 mM, for adjustment of divalent cation concentrations), the selective antagonist of α-amino-3-hydroxy-5-methyl-4-isoxazolepropionic acid (AMPA)/kainate receptors NBQX (10 μM), and the selective antagonist of γ-aminobutyric acid (GABA)B receptors CGP-55845 (2 μM) (Chen et al., 2003). The washout of Mg^2+ required at least 25 min. Recordings at a holding potential near the resting membrane potential allowed us to obtain stable NMDAR-EPSC recordings from pyramidal cells lasting for 1-1.5 hours. Series resistance (Rs, range 10-25 MΩ) was compensated (20-30%) and monitored continuously. Neurons in which Rs changed by more than 20% throughout the experiment were not included in the analysis. In voltage-clamp mode, membrane potential was not corrected for liquid junction potential. […]

NMDAR-mediated currents = conditions: cultured hippocampal neurons; cited from earlier work
[2] = tested on: C57BL/6J mice with intra-mPFC endoNF injection; experiment: Novel object recognition test before and after intra-mPFC endoNF injection; type: in vivo, mouse; conditions: 30 min before encoding; sarcosine 600 mg/kg i.p. (d2); DP12 (d5) and DP1 (d6) 1 mg/kg intranasally
Procedure: Guide cannulas were fabricated using stainless steel tubing with outer/inner diameter Ø 0.711/0.483 mm (Science Products, Germany). Dummy cannulas were made from entomological pins, size 2, Ø 0.41 mm (FST, Germany). Chronic implantation of cannulas into the mPFC in mice was performed as described previously for intrahippocampal injections (Kochlamazashvili et al., 2012; Senkov et al., 2015; Senkov et al., 2006).
Acute injection of endoNF in vivo was done under a short isoflurane anesthesia. For intra-mPFC injection, we used a digitally controlled infusion system (UltraMicroPump, UMP3, and Micro4 Controller, WPI, USA) fed with a 10 μl-Hamilton syringe and NanoFil 135 μm (35 GA) beveled needle. The thin (135 μm) part of the needle went into the mouse brain during injection, whereas its thick part (430 μm) fit perfectly in the guide cannula (inside 483 μm). Injections were performed as follows: 1) a mouse was anesthetized with 1-3% isoflurane as during implantation; 2) it was put into the stereotaxic frame; 3) the dummy cannula was gently removed from the left guide cannula; 4) a NanoFil injecting needle was carefully placed inside of the guide cannula and advanced further down until reaching the marker (made with a permanent pen at the needle shank (430 μm) to visualize the point when the needle should reach the surface of the brain coming out of the guide cannula (equal to the length of guide cannula); 5) once the marker was reached, a slow (10 μm increment) step dial was used to deepen the needle into the brain; 6) endoNF (2 μg/μl) or vehicle was injected with the following settings: 250 nl per site as deep as 1.5 and 2.25 mm from the brain surface (total injection volume per hemisphere 500 nl, injection rate of 3 nl/s); 7) after injection was complete (˜5 min), the needle was left in the injection site for another 5 min and then gently removed; 8) the dummy cannula was then put back to its place; 9) the same procedure was performed for the right hemisphere. The whole injection process took approximately 20-25 min under isoflurane anesthesia, and the mice recovered rather quickly, starting to move in approximately 2-3 min after being returned to their home cages. Complete recovery of a mouse after such short anesthesia usually occurs within 3-5 min. After injection, mice were returned to their animal facility. Behavior experiments started on the day after injection at approximately the same time, so that we could perform cognitive tests 24 hours after injection.
A white open field arena (50×50×30 cm) was used in the novel object recognition task. All behavior was video recorded and analyzed automatically by software (ANY-maze, version 4.99, Stoelting Co., Wood Dale, Ill.). […]

[3] = tested on: dissociated hippocampal cultures (primary neural cells); experiment: MTT assay of neural cell viability; type: cell-based, mouse; conditions: 30 to 1000 nM, 48 hours, from 10th day in vitro; DP10 effect at 30, 100 and 300 nM
Procedure: Primary hippocampal cells were dissociated from embryonic mice on embryonic day 18. To prepare the primary neural cultures, pregnant C57/BL6J mice were sacrificed by cervical dislocation. Embryos were decapitated, and the hippocampi isolated from brains under sterile conditions and dissected. Enzymatic digestion by 0.25% trypsin/EDTA solution was followed by separation of the cells in serum-containing medium via trituration (10 passes, 1 ml pipette). The primary cells were seeded onto 96-well plates coated with 100 μg/ml poly-lysine and 20 μg/ml laminin. The plating density was 20,000 cells per well. First, 200 μl Dulbecco's modified Eagle's medium (DMEM) was applied per well (supplemented with 1% penicillin-streptomycin and 1% L-glutamine and 2% B27). After incubation for 2 h at 37° C./5% CO2, the medium was exchanged with the pre-warmed Neurobasal medium including 1% penicillin-streptomycin, 1% L-glutamine, and 2% B27. The cells—predominantly neurons and astrocytes—were incubated at 37° C. in 5% CO2 humidified atmosphere for 10 days before administration of reagents.
The assay was performed as described elsewhere with minor modifications (Khalid et al., 2018). Primary neural cells (see above) grown in a 96-well plate were exposed to drugs/vehicles for 48 h at 37° C./5% CO2. After aspiration of culture media, a washing was done with 100 μl phosphate buffered saline (PBS, pH=7.2). Then, PBS was completely removed, and 100 μl phenol red-free pre-warmed Neurobasal media and 50 μl MTT solution (3-(4,5-dimethylthiazol-2-yl)-2,5-diphenyltetrazolium bromide, 5 mg/ml; dissolved in PBS) were added to each well and plates were incubated for 4 h in an incubator. […] DMSO destroyed the cells and released the formazan, which was detected by optical density value at 560 nm, measured using a plate reader. Optical density values for wells containing cells were corrected by subtracting values measured in cell-free wells prepared and treated in the same way as wells containing control cells.

5×FAD mice = experiment: Recency test (increased difficulty) in 5×FAD mice; type: in vivo, mouse; conditions: intranasal, 0.5 mg/kg DP12 or equimolar, 2 hours before test; 90 min intervals
Procedure: The recency test comprised of two encoding phases followed by a retrieval phase (modified from Nelson et al., 2011). The interval between the encoding phases was 1 h, and the interval between the second encoding phase and the retrieval phase was 10 min, except for experiments in 5×FAD mice when both intervals were 90 min to make the task more difficult. In the first encoding phase, animals were placed into the open field arena and allowed to explore a pair of identical objects for 10 min. Then, a different pair of identical objects was presented in the second encoding phase (10 min total exploration time). During the retrieval phase, two different objects, one object from each encoding phase, were placed into the apparatus and animals were given 10 min to explore them.
Animals were randomly assigned to treatment groups using a randomized block design to counterbalance differences in age. The time of the day when tests were performed for different animals was also counterbalanced between treatment groups using a randomized block design. All measurements and statistical analyses were performed performed blindly, i.e. the tubes containing drugs/vehicle were coded. Exploration was defined as the animal approaching the object at a distance of less than 2 cm. The animal climbing onto the object with both hind- and forelimbs was not considered as exploration. In the same trial, objects were counterbalanced, and between trials, the placements of novel and familiar objects were changed. The objects used in the novel object recognition test were not employed in the recency test. Novelty detection was evaluated by calculating the discrimination ratio as follows: [novel object time−familiar object time]/[novel object time+familiar object time]×100%. In the recency test, the discrimination ratio was calculated as follows: [least recent object time−most recent object time]/[least object time+most recent object time]×100%. Unreliable measurements (about 10%), when animals spent in total ≤10 s near to both objects, were excluded from analysis.
As the recency test was consistently used for analysis of DP12 effects in other mouse models, it was further investigated whether 13- to 14-month-old 5×FAD mice are impaired in this form of memory. In this series of experiments, the intervals between each session during recency test were increased to 90 min to increase the difficulty to recall the temporal order of the two objects shown in the arena (FIG. 12(A)). […] To verify whether DP12 or avDP10-9OAc may improve cognitive function in the 5×FAD model of AD, these compounds or a vehicle (H2O) were intranasally delivered in the same cohort of 5×FAD mice before multiple recency test sessions (separated by 4 day-interval). The numbers of mice in each treatment group during one session were counterbalanced and each mouse received in a random order both drugs and the vehicle. […] In contrast, vehicle-treated 5×FAD mice explored the two objects equally (FIG. 12(C)).

Row | Compound | effect on the amplitude of NMDAR-EPSCs [1] | inhibition of NMDAR-mediated currents (NMDAR-mediated currents) | novel object recognition after intra-mPFC endoNF injection [2] | effect on neural cell viability [3] | exploration of least recent versus most recent object in the retrieval phase (5×FAD mice) | object discrimination (discrimination ratio) compared to vehicle (5×FAD mice)
1 | CC(=O)N[C@H]1[C@H]([C@H](O)[C@H](O)CO)OC(O)(C(=O)O)C[C@@H]1O (stereo partly drawn) [DP1, N-acetylneuraminic acid] | no effect | do not inhibit | no effect |  |  | 
2 | (α(2→8)Neu5Ac)10 [DP10] |  |  |  | strong potentiating effect | preference for the least recently explored object | significantly better in object discrimination

Source: patent US20210301038A1, “POLYSIALIC ACID AND DERIVATIVES THEREOF, PHARMACEUTICAL COMPOSITION AND METHOD OF PRODUCING POLYSIALIC ACID” (Medizinische Hochschule Hannover (MHH), priority 2018, published 2021)
